In paper PMC10362580, “Patient-derived organoids for precision oncology: a platform to facilitate clinical decision making” (BMC Cancer, 2023):
One block for each compound: values may come before it.

Key:
[1] = tested on: Normal Organoid from normal adjacent tissue of ovarian cancer patients; test: PDO drug sensitivity and resistance testing (CellTiter-Glo), ovarian normal adjacent tissue organoids; format: cell-based; details: Homo sapiens
Experimental: (§1) Patient-derived tumor organoid was dissociated to single cells after seven days in culture. Epithelial Cells (from tumor and adjacent normal tissues) in combination with patient-derived isogenic adipose-derived Mesenchymal Stem Cells: iECs: MSCs (3:1:1) were seeded at a density of 5000 cells per well in 96-well clear bottom microplates. Multicellular organoids were allowed to grow for seven days. Breast and ovarian organoids were imaged every day and fed every alternate day with aforementioned Breast organoid medium and Ovarian organoid medium respectively. […] Organoids were subsequently incubated for […]; DMSO only- vehicle control and media only- negative control was used to set the baseline. After 0, 1, 7, 14 and 21 days ATP levels were measured with the CellTiter-Glo (Promega, Wisconsin, USA). All screenings were performed in triplicates. Data were analyzed using GraphPad Prism 6. Drug dose–response curves were visualized using […] analysis [setting: log (inhibitor) versus response, least-squares (ordinary) fit; top constraint 100%]. Concentrations where 50% cell viability (IC50-value) was reached were interpolated. The area under the curve (AUC) was approximated between the lowest and highest concentrations screened in the actual assay with the trapezoid rule for numerical integration. The dose–response curves were plotted as the percentage of the cell viability against the logarithm of drug concentrations in µM and were fitted to estimate the IC50.
(§2) We developed a protocol to culture and expand organoids from tissues collected from ovarian cancer patients. […] We performed drug sensitivity and resistance test (DSRT) using 2 FDA-approved commonly used therapeutic drugs paclitaxel and doxorubicin. Depending on the properties of the individual drugs, the concentrations ranged from 0.001 µM to 1000 µM (Fig. 6).
(§3) Following seven days incubation, organoid cultures were manually inspected using a phase-contrast microscope to check cell health and morphology prior to the addition of drugs. CellTiter-Glo® 2.0 determines the number of viable cells in a well, based on the quantification of ATP present, an indicator of metabolically viable cells. Total cell count was measured by CellTiter-Glo® 2.0, which causes cell lysis and produces a luminescence signal proportional to the amount of ATP present. Following completion of the above quality metrics, the data was normalized or the raw intensity data was used for curve-fitting. • Data normalization: Normalization was completed using the following calculation: (Raw intensity signal- Mean of positive control/ Mean of negative control-Mean positive control)

[2] = tested on: Normal Organoid from normal adjacent tissue of breast cancer patients; test: PDO drug sensitivity and resistance testing (CellTiter-Glo), breast normal adjacent tissue organoids; format: cell-based; details: Homo sapiens
Experimental: as §1
(§4) We investigated BC organoids in response to standard medications in order to assess their potential as in vitro disease models. Towards this, PDOs were treated with doxorubicin and paclitaxel (commonly used chemotherapeutic drugs).
as §3

[3] = tested on: patient-derived breast cancer organoids (Tumor Organoid); test: PDO drug sensitivity and resistance testing (CellTiter-Glo), breast tumor organoids; format: cell-based, human; details: for IC50: Homo sapiens; for Viability of organoids (CTG assay): breast cancer organoids; for Response of breast cancer PDOs to treatment: few breast cancer PDOs
Experimental: as §1, §4, §3

[4] = tested on: iPSCs-derived cardiomyocytes; test: Calcium transient assay (cardiotoxicity); format: cell-based, human; details: 1 µM; cardiomyocytes from healthy donor, breast cancer and ovarian cancer patient
Experimental: To initiate cardiac differentiation, 10,000 cells/cm^2 of passage 11–20 single cell suspension of iPSCs were seeded on matrigel coated plates in mTeSR™1 media and incubated overnight to obtain 95% confluent culture. Once cells reached > 95% confluence, RPMI 1648 medium (Gibco)/B-27 Supplement Minus Insulin (Gibco)/ 100 ng/ml Activin A (Gibco) + Matrigel (Corning) + […] CHIR9902 (Stem Cell Technologies) was added. CHIR9902 only for 24 h. Day 02–04: RPMI 1648 medium (Gibco)/B-27 Supplement Minus Insulin (Gibco)/ activin A (Gibco) (100 ng/ml) and BMP4 (Gibco) (10 ng/ml) and bFGF. Day 05–06: RPMI 1640 (with L-glutamine) with 2% B27 minus insulin supplement, 1 µl IWR-1 (5 µM final). Day 07–09: RPMI 1640 with L-Glutamine (Gibco) with 2% B27 with insulin supplement (Gibco). Day10: At day 10 post-differentiation, changed the medium to RPMI 1648-low glucose medium (Gibco) and maintained the cells in this medium for 3 days (until day 13). Day 13: Returned cells to RPMI/B27 medium-with insulin (Gibco). At day 14, changed the medium back to RPMI-low glucose medium (Gibco) for a second glucose deprivation cycle. Cultured the cells in this low glucose state for 3 more days. Most of the non-cardiomyocytes will die in this low-glucose culture condition. At day 17, changed the medium to 2 ml of RPMI/B27 medium with insulin. The remaining cells will be highly purified cardiomyocytes. […]

[5] = tested on: patient-derived primary ovarian cancer organoids (Tumor Organoid); test: PDO drug sensitivity and resistance testing (CellTiter-Glo), ovarian tumor organoids; format: cell-based, human; details: for IC50: Homo sapiens; for Viability of organoids (CTG assay): ovarian cancer organoids
Experimental: as §1, §2, §3

[6] = tested on: iPSCs-derived hepatocytes; test: Cytoskeleton disruption in hepatocytes (hepatotoxicity); format: cell-based, human; details: 0.1 ug/ml; hepatocytes from healthy donors, breast cancer and ovarian cancer patients
Experimental: To initiate hepatic differentiation, 10, 000 cells/cm^2 of passage 11 (P11) single cell suspension of iPSCs were seeded on matrigel coated plates in mTeSR™1 media and incubated overnight to obtain 95% confluent culture. Once cells reached > 95% confluence, RPMI media (Gibco) + 2% B27 supplement (Gibco) + 100 ng/ml Activin A (Gibco) + 3 µM CHIR99021 (Stem Cell Technologies) + 2% Matrigel (Corning) was added. Day 1 to 4: RPMI (Gibco) media + 2% B27 supplement (Gibco) + 100 ng/ml Activin A (Sigma). Day 5 to 10: RPMI (Gibco) media + 2% B27 supplement (Gibco) + 10 ng/ml bFGF (Sigma) + 20 ng/ml BMP4 (Sigma) + 0.5% DMSO (Sigma); Day 11 to 15: RPMI 1648 (Gibco) media + 2% B27 supplement (Gibco) + 20 ng/ml HGF (Sigma) + 0.5% DMSO (Sigma); Day 16 to 21: RPMI 1648 (Gibco) media + 2% B27 supplement (Gibco) + 20 ng/ml Oncostatin M (Gibco) + 100 nM Dexamethasone + 20 ng/ml HGF (Sigma) + 0.5% DMSO (Sigma). […] The presence of intracellular glycogen in hepatocytes was assessed by periodic acid–Schiff’s (PAS) staining and nuclei were counterstained with Mayer’s haematoxylin [42]. […]

[7] = tested on: iPSCs-derived forebrain motor neurons; test: Neurite outgrowth assay (neurotoxicity); details: 1 µM; neurons from healthy donor, breast cancer and ovarian cancer patient
Experimental: Neurite outgrowth assay was performed to determine neurotoxicity. […] We tested neurotoxic chemotherapeutic drug on iPSC-derived neurons- control (healthy donor), breast cancer and ovarian cancer patients [46–48] using ImageXpress® Nano Automated Imaging System (Molecular Devices).

[8] = 168 h, Ovarian Cancer Sample 1, Normal Organoid, day 7, CTG
[9] = 168 h, Ovarian Cancer Sample 2, Normal Organoid, day 7, CTG
[10] = 168 h, Ovarian Cancer Sample 3, Normal Organoid, day 7, CTG
[11] = 336 h, Ovarian Cancer Sample 1, Normal Organoid, day 14, CTG
[12] = 336 h, Ovarian Cancer Sample 2, Normal Organoid, day 14, CTG
[13] = 336 h, Ovarian Cancer Sample 3, Normal Organoid, day 14, CTG
[14] = 504 h, Ovarian Cancer Sample 1, Normal Organoid, day 21, CTG
[15] = 504 h, Ovarian Cancer Sample 2, Normal Organoid, day 21, CTG
[16] = 504 h, Ovarian Cancer Sample 3, Normal Organoid, day 21, CTG
[17] = 168 h, Breast Cancer Sample 1, Normal Organoid, day 7, CTG
[18] = 168 h, Breast Cancer Sample 2, Normal Organoid, day 7, CTG
[19] = 168 h, Breast Cancer Sample 3, Normal Organoid, day 7, CTG
[20] = 336 h, Breast Cancer Sample 1, Normal Organoid, day 14, CTG
[21] = 336 h, Breast Cancer Sample 2, Normal Organoid, day 14, CTG
[22] = 336 h, Breast Cancer Sample 3, Normal Organoid, day 14, CTG
[23] = 504 h, Breast Cancer Sample 1, Normal Organoid, day 21, CTG
[24] = 504 h, Breast Cancer Sample 2, Normal Organoid, day 21, CTG
[25] = 504 h, Breast Cancer Sample 3, Normal Organoid, day 21, CTG
[26] = 168 h, Breast Cancer Sample 1, Tumor Organoid, day 7, CTG
[27] = 168 h, Breast Cancer Sample 2, Tumor Organoid, day 7, CTG
[28] = 168 h, Breast Cancer Sample 3, Tumor Organoid, day 7, CTG
[29] = 336 h, Breast Cancer Sample 1, Tumor Organoid, day 14, CTG
[30] = 336 h, Breast Cancer Sample 2, Tumor Organoid, day 14, CTG
[31] = 336 h, Breast Cancer Sample 3, Tumor Organoid, day 14, CTG
[32] = 504 h, Breast Cancer Sample 1, Tumor Organoid, day 21, CTG
[33] = 504 h, Breast Cancer Sample 2, Tumor Organoid, day 21, CTG
[34] = 504 h, Breast Cancer Sample 3, Tumor Organoid, day 21, CTG
[35] = 168 h, Ovarian Cancer Sample 1, Tumor Organoid, day 7, CTG
[36] = 168 h, Ovarian Cancer Sample 2, Tumor Organoid, day 7, CTG
[37] = 168 h, Ovarian Cancer Sample 3, Tumor Organoid, day 7, CTG
[38] = 336 h, Ovarian Cancer Sample 1, Tumor Organoid, day 14, CTG
[39] = 336 h, Ovarian Cancer Sample 2, Tumor Organoid, day 14, CTG
[40] = 336 h, Ovarian Cancer Sample 3, Tumor Organoid, day 14, CTG
[41] = 504 h, Ovarian Cancer Sample 1, Tumor Organoid, day 21, CTG
[42] = 504 h, Ovarian Cancer Sample 2, Tumor Organoid, day 21, CTG
[43] = 504 h, Ovarian Cancer Sample 3, Tumor Organoid, day 21, CTG

IC50 [3, 26]: 902 µM
IC50 [3, 27]: 976 µM
IC50 [3, 28]: 938 µM
IC50 [3, 29]: 117 µM
IC50 [3, 30]: 1060 µM
IC50 [3, 31]: 92.2 µM
IC50 [3, 32]: 125 µM
IC50 [3, 33]: 97.6 µM
IC50 [3, 34]: 9.55 µM
IC50 [5, 35]: 847 µM
IC50 [5, 36]: 2450 µM
IC50 [5, 37]: 987 µM
IC50 [5, 38]: 877 µM
IC50 [5, 39]: 2210 µM
IC50 [5, 40]: 1040 µM
IC50 [5, 41]: 1.02 µM
IC50 [5, 42]: 1930 µM
IC50 [5, 43]: 98.1 µM
Compound: COc1cccc2c1C(=O)c1c(O)c3c(c(O)c1C2=O)C[C@@](O)(C(=O)CO)C[C@@H]3O[C@H]1C[C@H](N)[C@H](O)[C@H](C)O1 [Doxorubicin]
IC50 [1, 8]: 96.2 µM
IC50 [1, 9]: 2340 µM
IC50 [1, 10]: 102 µM
IC50 [1, 11]: 8.92 µM
IC50 [1, 12]: 2250 µM
IC50 [1, 13]: 8.89 µM
IC50 [1, 14]: 0.0119 µM
IC50 [1, 15]: 1160 µM
IC50 [1, 16]: 9.29 µM
IC50 [2, 17]: 96.6 µM
IC50 [2, 18]: 859 µM
IC50 [2, 19]: 955 µM
IC50 [2, 20]: 92 µM
IC50 [2, 21]: 1010 µM
IC50 [2, 22]: 96.4 µM
IC50 [2, 23]: 0.955 µM
IC50 [2, 24]: 9.53 µM
IC50 [2, 25]: 10.2 µM
Viability of organoids (CTG assay) [3]: significantly decreased the viability of organoids
Response of breast cancer PDOs to treatment [3]: resistant
Calcium oscillation/contraction pattern sensitivity, donor comparison [4]: Ovarian cancer patient’s cardiomyocytes was found more sensitive to Doxorubicin followed by breast cancer patient and healthy donor
Viability of organoids (CTG assay) [5]: significantly decreased the viability of organoids

Compound: C/C1=C/C(=O)O[C@@H]2C[C@@H](CC[C@H](C)/C=C\C=C\CC1)O[C@@](O)([C@@H]1CSC(=O)N1)C2 [Latrunculin a]
Cytoskeleton disruption sensitivity, donor comparison [6]: Ovarian cancer patient’s hepatocytes were found more sensitive to Latrunculin followed by breast cancer patient and healthy donor

IC50 [3, 26]: 83.6 µM
IC50 [3, 27]: 874 µM
IC50 [3, 28]: 849 µM
IC50 [3, 29]: 96.4 µM
IC50 [3, 30]: 103 µM
IC50 [3, 31]: 975 µM
IC50 [3, 32]: 94.9 µM
IC50 [3, 33]: 107 µM
IC50 [3, 34]: 8.95 µM
IC50 [5, 35]: 16.7 µM
IC50 [5, 36]: 940 µM
IC50 [5, 37]: 2020 µM
IC50 [5, 38]: 20 µM
IC50 [5, 39]: 96 µM
IC50 [5, 40]: 945 µM
IC50 [5, 41]: 0.588 µM
IC50 [5, 42]: 9.74 µM
IC50 [5, 43]: 97.6 µM
Compound: CC(=O)O[C@H]1C(=O)[C@@]2(C)[C@H]([C@H](OC(=O)c3ccccc3)[C@]3(O)C[C@H](OC(=O)[C@H](O)[C@@H](NC(=O)c4ccccc4)c4ccccc4)C(C)=C1C3(C)C)[C@]1(OC(C)=O)CO[C@@H]1C[C@@H]2O [Paclitaxel]
IC50 [1, 8]: 22.7 µM
IC50 [1, 9]: 1240 µM
IC50 [1, 10]: 2120 µM
IC50 [1, 11]: 0.625 µM
IC50 [1, 12]: 76.7 µM
IC50 [1, 13]: 1010 µM
IC50 [1, 14]: 0.617 µM
IC50 [1, 15]: 89 µM
IC50 [1, 16]: 97.6 µM
IC50 [2, 17]: 7.89 µM
IC50 [2, 18]: 947 µM
IC50 [2, 19]: 95.1 µM
IC50 [2, 20]: 8.53 µM
IC50 [2, 21]: 980 µM
IC50 [2, 22]: 100 µM
IC50 [2, 23]: 0.955 µM
IC50 [2, 24]: 1000 µM
IC50 [2, 25]: 10.2 µM
Viability of organoids (CTG assay) [3]: significantly decreased the viability of organoids
Response of breast cancer PDOs to treatment [3]: sensitive
Neurite outgrowth sensitivity, donor comparison [7]: Ovarian cancer patient’s neurons were found more sensitive to paclitaxel followed by breast cancer patient and healthy donor
Viability of organoids (CTG assay) [5]: significantly decreased the viability of organoids
